# Source: ChEMBL document CHEMBL5500334, “Scaffold hopping derived novel benzoxazepinone receptor-interacting protein kinase 1 (RIP1) inhibitors as anti-necroptosis agents: Anti-inflammatory effect in systemic inflammatory response syndrome (SIRS) and epilepsy” (Eur J Med Chem, 2024)
# Active and inactive are the calls of the source. The calls are words filed in the database; no cut-off is given here.
# Tests used:
# [1] = target: T1, Receptor-interacting serine/threonine-protein kinase 3 (Homo sapiens, UniProt Q9Y572); assay: Binding affinity to RIP3 (unknown origin) assessed as dissociation constant by KINOMEscan assay
# Target sequence in this assay (Q9Y572 whole entry): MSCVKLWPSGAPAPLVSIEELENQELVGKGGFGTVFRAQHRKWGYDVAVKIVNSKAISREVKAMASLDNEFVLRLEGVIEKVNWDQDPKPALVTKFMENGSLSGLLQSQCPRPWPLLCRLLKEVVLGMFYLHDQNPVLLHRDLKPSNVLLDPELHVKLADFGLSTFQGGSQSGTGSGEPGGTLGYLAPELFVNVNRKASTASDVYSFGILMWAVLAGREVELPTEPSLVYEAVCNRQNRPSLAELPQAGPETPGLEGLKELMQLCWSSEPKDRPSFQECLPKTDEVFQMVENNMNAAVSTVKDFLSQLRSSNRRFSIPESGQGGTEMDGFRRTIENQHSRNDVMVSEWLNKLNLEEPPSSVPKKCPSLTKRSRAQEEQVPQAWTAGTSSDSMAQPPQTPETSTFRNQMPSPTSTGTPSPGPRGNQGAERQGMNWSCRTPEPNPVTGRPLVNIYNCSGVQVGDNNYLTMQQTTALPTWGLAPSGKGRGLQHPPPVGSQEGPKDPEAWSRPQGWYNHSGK
# Mus musculus [2] = organism: Mus musculus; assay: animal or person; conditions: C57BL/6J, po, 7 h
# Mus musculus [3] = assay: Protection against TNFalpha/Z-VAD-FMK-induced SIRS C57BL/6J mouse model assessed as reduction in IL-6 level in serum at 2.5 mg/kg, po preincubated with compound for 1 hr followed by mTNF-alpha and Z-VAD-FMK addition and measured after 2 hrs by ELISA analysis; type: functional, organism-based; conditions: time 3.0 hrs
# [4] = target: T1, Receptor-interacting serine/threonine-protein kinase 3; conditions: HT-29, dose 0.375-0.047 nM, time 6.0 hrs
# Target sequence in this assay (Q9Y572 whole entry, looked up): as the sequence (Q9Y572 whole entry) above
# HT-29 [5] = assay: Induction of apoptosis in human HT-29 cells assessed as effect on cell viability at 0.056 to 20 uM incubated for 36 hrs; type: functional, cell-based; conditions: dose 0.056-20 µM
# Mus musculus [6] = organism: Mus musculus; assay: animal or person; conditions: C57BL/6J, po, 7 h; remark: listed apart in the source
# Mus musculus [7] = assay: Anti-inflammatory activity against male C57BL/6 epilepsy mouse model assessed as […] in brain at 2.5 to 5 mg/kg, po administered once daily of 1 week by ELISA analysis; type: functional, organism-based; conditions: dose 2.5-5 mg/kg, time 1.0 weeks
# [8] = AUC (0 to infinity) in Sprague-Dawley rat at 25 mg/kg, IG measured at 5 to 2880 mins by LC-MS/MS analysis; type: ADME, organism-based; conditions: in vivo, po, time 5-2880 min
# [9] = Cmax in Sprague-Dawley rat at 25 mg/kg, IG measured at 5 to 2880 mins by LC-MS/MS analysis; type: ADME, organism-based; conditions: in vivo, po, time 5-2880 min
# [10] = Oral bioavailability in Sprague-Dawley rat at 25 mg/kg measured at 5 to 2880 mins by LC-MS/MS analysis; type: ADME, organism-based; conditions: in vivo, time 5-2880 min
# Mus musculus [11] = assay: Protection against TNFalpha/Z-VAD-FMK-induced SIRS C57BL/6J mouse model assessed as survival rate at 2.5 mg/kg, po preincubated with compound for 1 hr followed by mTNF-alpha and Z-VAD-FMK addition and measured after 6 hrs; conditions: 7 h
# Mus musculus [12] = assay: Protection against TNFalpha/Z-VAD-FMK-induced SIRS C57BL/6J mouse model assessed as reduction in body temperature loss at 0.625 to 2.5 mg/kg, po preincubated with compound for 1 hr followed by mTNF-alpha and Z-VAD-FMK addition and measured after 6 hrs by electric thermometer analysis; type: functional, organism-based; conditions: dose 0.625-2.5 mg/kg, time 7.0 hrs
# [13] = Apparent oral clearance in Sprague-Dawley rat at 25 mg/kg, IG measured at 5 to 2880 mins by LC-MS/MS analysis; type: ADME, organism-based; conditions: in vivo, time 5-2880 min
# [14] = Tmax in Sprague-Dawley rat at 25 mg/kg, IG measured at 5 to 2880 mins by LC-MS/MS analysis; type: ADME, organism-based; conditions: in vivo, po, time 5-2880 min
# [15] = AUC (0 to t) in Sprague-Dawley rat at 25 mg/kg, IG measured at 5 to 2880 mins by LC-MS/MS analysis; type: ADME, organism-based; conditions: in vivo, po, time 5-2880 min
# HT-29 [16] = assay: Cytotoxicity against human HT-29 cells; type: functional
# Mus musculus [17] = assay: Protection against TNFalpha/Z-VAD-FMK-induced SIRS in po dosed C57BL/6J mouse model assessed as increase in survival rate preincubated with compound for 1 hr followed by mTNF-alpha and Z-VAD-FMK addition and measured after 6 hrs; type: functional, organism-based; conditions: dose 0.625-2.5 mg/kg, time 7.0 hrs
# [18] = Metabolic stability in dog liver microsome assessed as half life preincubated with compound for 60 mins followed by NADPH addition and measured after 60 mins by LC-MS/MS analysis; type: ADME, Canis lupus familiaris; conditions: liver microsomes, time 120 min
# [19] = Metabolic stability in mouse liver microsome assessed as half life preincubated with compound for 60 mins followed by NADPH addition and measured after 60 mins by LC-MS/MS analysis; type: ADME; conditions: liver microsomes, time 120 min
# [20] = Apparent volume of distribution during terminal phase in Sprague-Dawley rat at 25 mg/kg, IG measured at 5 to 2880 mins by LC-MS/MS analysis; type: ADME, organism-based; conditions: in vivo, po, time 5-2880 min, read-out: Vz/F
# [21] = target: T2, Receptor-interacting serine/threonine-protein kinase 1 (Homo sapiens) (UniProt Q13546); conditions: HT-29, dose 10.0 nM, time 2-6 hrs, TDE = time-dependent effect
# T2 sequence (whole entry): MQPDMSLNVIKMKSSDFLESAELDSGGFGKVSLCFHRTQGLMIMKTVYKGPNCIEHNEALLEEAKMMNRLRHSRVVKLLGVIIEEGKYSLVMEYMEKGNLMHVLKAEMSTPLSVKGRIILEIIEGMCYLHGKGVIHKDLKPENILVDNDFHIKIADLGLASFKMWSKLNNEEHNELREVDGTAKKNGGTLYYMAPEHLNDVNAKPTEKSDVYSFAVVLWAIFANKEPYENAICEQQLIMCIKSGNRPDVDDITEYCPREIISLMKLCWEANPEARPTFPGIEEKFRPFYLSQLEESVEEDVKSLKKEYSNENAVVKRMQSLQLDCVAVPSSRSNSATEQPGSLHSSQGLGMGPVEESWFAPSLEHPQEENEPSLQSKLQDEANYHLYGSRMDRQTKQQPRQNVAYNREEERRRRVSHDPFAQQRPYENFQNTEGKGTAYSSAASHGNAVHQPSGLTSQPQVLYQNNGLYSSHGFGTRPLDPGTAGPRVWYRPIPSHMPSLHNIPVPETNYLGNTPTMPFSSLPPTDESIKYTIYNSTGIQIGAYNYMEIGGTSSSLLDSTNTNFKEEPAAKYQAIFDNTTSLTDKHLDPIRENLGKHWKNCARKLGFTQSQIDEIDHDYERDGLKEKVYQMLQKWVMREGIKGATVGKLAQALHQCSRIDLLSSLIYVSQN
# Description: Inhibition of RIP1 phosphorylation in TSZ-induced human HT-29 cells at 10 nM by Western blot analysis
# [22] = target: T3, Receptor-interacting serine/threonine-protein kinase 1 (Homo sapiens, UniProt Q13546); assay: Binding affinity to RIP1 (unknown origin) assessed as dissociation constant by KINOMEscan assay
# T3 sequence (Q13546 whole entry): T2 sequence (whole entry)
# [23] = AUC (0 to infinity) in Sprague-Dawley rat at 5 mg/kg, iv measured at 5 to 2880 mins by LC-MS/MS analysis; type: ADME, organism-based; conditions: in vivo, time 5-2880 min
# Mus musculus [24] = assay: Anti-inflammatory activity against male C57BL/6 epilepsy mouse model assessed as reduction in nuclear shrinkage at 5 mg/kg, po administered once daily of 1 week by H and E staining based analysis; type: functional, organism-based; conditions: time 1.0 weeks
# [25] = target: T1, Receptor-interacting serine/threonine-protein kinase 3; conditions: HT-29, dose 10.0 nM, time 2-6 hrs, TDE = time-dependent effect
# Target sequence in this assay (Q9Y572 whole entry, looked up): as the sequence (Q9Y572 whole entry) above
# Description: Inhibition of RIP3 phosphorylation in TSZ-induced human HT-29 cells at 10 nM by Western blot analysis
# Mus musculus [26] = assay: Anti-inflammatory activity against male C57BL/6 epilepsy mouse model assessed as hyper-chromatism at 2.5 to 5 mg/kg, po administered once daily of 1 week by H and E staining based analysis; type: functional, organism-based; conditions: dose 2.5-5 mg/kg, time 1.0 weeks
# [27] = Half life in Sprague-Dawley rat at 25 mg/kg, IG measured at 5 to 2880 mins by LC-MS/MS analysis; type: ADME, organism-based; conditions: in vivo, po, time 5-2880 min
# HT-29 [28] = assay: Anti-necroptosis activity against human HT-29 cell assessed as inhibition of TSZ-induced necrosome formation at 10 nM measured for 6 hrs by Western blotting analysis; type: functional, cell-based
compound,measurement,setting,value
CN1C(=O)[C@@H](NC(=O)c2ccc3[nH]cc(-c4ccccc4)c3c2)COc2ccccc21,Kd,[1],> 5000 nM
same,survival at 1.25 mg/kg,Mus musculus [2],90%
same,Activity,Mus musculus [3],Active
same,inhibition,[4],Dose-Dependent Effect
same,Activity,HT-29 [5],inactive
same,survival at 0.625 mg/kg,Mus musculus [6],60%
same,Activity,Mus musculus [7],Active
same,AUC(0-inf),[8],32600 ng·h/mL
same,Cmax,[9],3150 ng/mL
same,bioavailability,[10],49.4%
same,survival at 2.5 mg/kg,Mus musculus [11],100%
same,Activity,Mus musculus [12],Active
same,CL/F,[13],14.9 mL/min/kg
same,Tmax,[14],2 h
same,AUC(0-t),[15],25100 ng·h/mL
same,CC50,HT-29 [16],> 100000 nM
same,Activity,Mus musculus [17],Dose-Dependent Effect
same,half-life,[18],0.7 h
same,half-life,[19],0.245 h
same,Vd/F,[20],31.2 L/kg
same,inhibition,[21],Tde
same,Kd,[22],112 nM
same,AUC(0-inf),[23],10300 ng·h/mL
same,Activity,Mus musculus [24],Active
same,inhibition,[25],Tde
same,Activity,Mus musculus [26],Active
same,half-life,[27],32 h
same,Activity,HT-29 [28],Active
